US20130121994A1, “TRIAZOLOPYRIDINE DERIVATIVES” (BAYER INTELLECTUAL PROPERTY GMBH, priority 2009, published 2013)

target: T1, human kinase Mps-1 (Homo sapiens, UniProt P33981); test: Mps-1 kinase assay (HTRF); assay type: biochemical
T1 construct: N-terminally GST-tagged human full length recombinant Mps-1 kinase; GST (N); purchased Invitrogen, Karslruhe, Germany PV4071
T1 sequence (P33981 1-857): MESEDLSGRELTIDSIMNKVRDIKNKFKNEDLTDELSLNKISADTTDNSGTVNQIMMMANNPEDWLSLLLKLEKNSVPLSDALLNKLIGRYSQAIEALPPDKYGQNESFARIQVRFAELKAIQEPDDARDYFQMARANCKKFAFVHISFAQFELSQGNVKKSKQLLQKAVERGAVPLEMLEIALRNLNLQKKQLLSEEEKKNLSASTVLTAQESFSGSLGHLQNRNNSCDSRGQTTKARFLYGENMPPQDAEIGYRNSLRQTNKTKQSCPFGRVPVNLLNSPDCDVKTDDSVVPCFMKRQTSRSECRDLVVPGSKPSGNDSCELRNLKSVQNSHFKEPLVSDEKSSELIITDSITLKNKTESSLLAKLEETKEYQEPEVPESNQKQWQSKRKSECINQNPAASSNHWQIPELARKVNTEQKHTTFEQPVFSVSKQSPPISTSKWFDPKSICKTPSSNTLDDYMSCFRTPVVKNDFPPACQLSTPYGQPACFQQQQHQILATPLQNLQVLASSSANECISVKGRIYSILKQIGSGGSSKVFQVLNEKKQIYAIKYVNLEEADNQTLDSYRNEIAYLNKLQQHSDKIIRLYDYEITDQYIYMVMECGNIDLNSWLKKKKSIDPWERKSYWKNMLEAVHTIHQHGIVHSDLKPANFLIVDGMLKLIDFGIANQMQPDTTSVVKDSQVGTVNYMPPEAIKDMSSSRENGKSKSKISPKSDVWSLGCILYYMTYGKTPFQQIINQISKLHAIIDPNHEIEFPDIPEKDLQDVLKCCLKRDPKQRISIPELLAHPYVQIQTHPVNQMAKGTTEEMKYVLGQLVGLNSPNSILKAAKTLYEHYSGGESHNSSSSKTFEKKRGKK

Structure (SMILES)	IC50
COCCNC(=O)c1cccc(-c2ccc3nc(Nc4ccccc4C#N)nn3c2)c1 [Example 11.068, 3-{2-[(2-cyanophenyl)amino][1,2,4]triazolo[1,5-a]pyridin-6-yl}-N-(2-methoxyethyl)benzamide]	24.7 nM
N#Cc1ccccc1Nc1nc2ccc(-c3cccc(C(=O)NCC(F)F)c3F)cn2n1 [Example 11.069, 3-{2-[(2-cyanophenyl)amino][1,2,4]triazolo[1,5-a]pyridin-6-yl}-N-(2,2-difluoroethyl)-2-fluorobenzamide]	34.2 nM
N#Cc1ccccc1Nc1nc2ccc(-c3cccc(C(=O)NCCO)c3)cn2n1 [Example 11.070, 3-{2-[(2-cyanophenyl)amino][1,2,4]triazolo[1,5-a]pyridin-6-yl}-N-(2-hydroxyethyl)benzamide]	29.7 nM
C[C@H](O)CNC(=O)c1cccc(-c2ccc3nc(Nc4ccccc4C#N)nn3c2)c1 [Example 11.071, 3-{2-[(2-cyanophenyl)amino][1,2,4]triazolo[1,5-a]pyridin-6-yl}-N-[(2S)-2-hydroxypropyl]benzamide]	36.9 nM
N#Cc1ccccc1Nc1nc2ccc(-c3cccc(C(=O)NCCF)c3F)cn2n1 [Example 11.072, 3-{2-[(2-cyanophenyl)amino][1,2,4]triazolo[1,5-a]pyridin-6-yl}-2-fluoro-N-(2-fluoroethyl)benzamide]	42.2 nM
N#Cc1ccccc1Nc1nc2ccc(-c3ccc(F)c(C(=O)O)c3)cn2n1 [Example 11.073, 5-{2-[(2-cyanophenyl)amino][1,2,4]triazolo[1,5-a]pyridin-6-yl}-2-fluorobenzoic acid]	43.5 nM
N#Cc1ccccc1Nc1nc2ccc(-c3cc(F)cc(C(=O)O)c3)cn2n1 [Example 11.074, 3-{2-[(2-cyanophenyl)amino][1,2,4]triazolo[1,5-a]pyridin-6-yl}-5-fluorobenzoic acid]	170 nM
CCOC(=O)c1cc(F)cc(-c2ccc3nc(Nc4ccccc4C#N)nn3c2)c1 [Example 11.075, ethyl 3-{2-[(2-cyanophenyl)amino][1,2,4]triazolo[1,5-a]pyridin-6-yl}-5-fluorobenzoate]	1980 nM
CNC(=O)c1ccc(Nc2nc3ccc(-c4cccc(C(=O)NCC(C)(C)C)c4)cn3n2)c(OC)c1 [Example 11.076, 4-[(6-{3-[(2,2-dimethylpropyl)carbamoyl]phenyl}[1,2,4]tria-zolo[1,5-a]pyridin-2-yl)amino]-3-methoxy-N-methylbenzamide]	≤ 1 nM
COc1cc(C(=O)NCCS(C)(=O)=O)ccc1Nc1nc2ccc(-c3cccc(C(=O)NCC(C)(C)C)c3)cn2n1 [Example 11.078, 4-[(6-{3-[(2,2-dimethylpropyl)carbamoyl]phenyl}[1,2,4]tria-zolo[1,5-a]pyridin-2-yl)amino]-3-methoxy-N-[2-(methylsulfonyl)ethyl]benzamide]	≤ 1 nM
COc1cc(C(=O)NC(C)(C)C)ccc1Nc1nc2ccc(-c3cccc(C(=O)NCC(C)(C)C)c3)cn2n1 [Example 11.082, N-tert-butyl-4-[(6-{3-[(2,2-dimethylpropyl)carbamoyl]phenyl}[1,2,4]tria-zolo[1,5-a]pyridin-2-yl)amino]-3-methoxybenzamide]	1.23 nM
CC(C)(C)CNC(=O)c1cccc(-c2ccc3nc(Nc4ccc(C(=O)NC(C)(C)CO)cc4OCC(F)(F)F)nn3c2)c1 [Example 11.092, 4-[(6-{3-[(2,2-dimethylpropyl)carbamoyl]phenyl}[1,2,4]tria-zolo[1,5-a]pyridin-2-yl)amino]-N-(1-hydroxy-2-methylpropan-2-yl)-3-(2,2,2-trifluoroethoxy)benzamide]	≤ 1 nM

Other lines, results leading:

IC50	Structure (SMILES)
≤ 1 nM	COc1cc(C(=O)NC(C)(C)C)ccc1Nc1nc2ccc(-c3cccc(C(=O)NCC(F)(F)F)c3)cn2n1 [Example 11.077, N-tert-butyl-3-methoxy-4-[(6-{3-[(2,2,2-trifluoroethyl)carbamoyl]phenyl}[1,2,4]triazolo [1,5-a]pyridin-2-yl)amino]benzamide]
≤ 1 nM	CCNC(=O)c1ccc(Nc2nc3ccc(-c4cccc(C(=O)NCC(C)(C)C)c4)cn3n2)c(OC)c1 [Example 11.079, 4-[(6-{3-[(2,2-dimethylpropyl)carbamoyl]phenyl}[1,2,4]tria-zolo[1,5-a]pyridin-2-yl)amino]-N-ethyl-3-methoxybenzamide]
≤ 1 nM	COc1cc(C(=O)NCCS(C)(=O)=O)ccc1Nc1nc2ccc(-c3cccc(C(=O)NCC(F)(F)F)c3)cn2n1 [Example 11.080, 3-methoxy-N-[2-(methylsulfonyl)ethyl]-4-[(6-{3-[(2,2,2-trifluoroethyl)carbamoyl]phenyl}[1,2,4]triazolo [1,5-a]pyridin-2-yl)amino]benzamide]
≤ 1 nM	CCNC(=O)c1ccc(Nc2nc3ccc(-c4cccc(C(=O)NCC(F)(F)F)c4)cn3n2)c(OC)c1 [Example 11.081, N-ethyl-3-methoxy-4-[(6-{3-[(2,2,2-trifluoroethyl)carbamoyl]phenyl}[1,2,4]triazolo [1,5-a]pyridin-2-yl)amino]benzamide]
≤ 1 nM	CCNC(=O)c1ccc(Nc2nc3ccc(-c4cccc(C(=O)NCC(F)(F)C(F)(F)F)c4)cn3n2)c(OC)c1 [Example 11.083, N-ethyl-3-methoxy-4-[(6-{3-[(2,2,3,3,3-pentafluoropropyl)carbamoyl]phenyl}[1,2,4]triazolo[1,5-a]pyridin-2-yl)amino]benzamide]
1.07 nM	COc1cc(C(=O)NCC(F)(F)F)ccc1Nc1nc2ccc(-c3cccc(C(=O)NCC(C)(C)C)c3)cn2n1 [Example 11.084, 4-[(6-{3-[(2,2-dimethylpropyl)carbamoyl]phenyl}[1,2,4]tria-zolo[1,5-a]pyridin-2-yl)amino]-3-methoxy-N-(2,2,2-trifluoroethyl)benzamide]
≤ 1 nM	CCOc1cc(C(=O)NCCS(C)(=O)=O)ccc1Nc1nc2ccc(-c3cccc(C(=O)NCC(C)(C)C)c3)cn2n1 [Example 11.085, 4-[(6-{3-[(2,2-dimethylpropyl)carbamoyl]phenyl}[1,2,4]tria-zolo[1,5-a]pyridin-2-yl)amino]-3-ethoxy-N-[2-(methylsulfonyl)ethyl]benzamide]
≤ 1 nM	CCOc1cc(C(=O)NCCS(C)(=O)=O)ccc1Nc1nc2ccc(-c3cccc(C(=O)NCC(F)(F)F)c3)cn2n1 [Example 11.086, 3-ethoxy-N-[2-(methylsulfonyl)ethyl]-4-[(6-{3-[(2,2,2-trifluoroethyl)carbamoyl]phenyl}[1,2,4]triazolo [1,5-a]pyridin-2-yl)amino]benzamide]
≤ 1 nM	CCNC(=O)c1ccc(Nc2nc3ccc(-c4cccc(C(=O)NCC(C)(C)C)c4)cn3n2)c(OCC)c1 [Example 11.087, 4-[(6-{3-[(2,2-dimethylpropyl)carbamoyl]phenyl}[1,2,4]tria-zolo[1,5-a]pyridin-2-yl)amino]-3-ethoxy-N-ethylbenzamide]
≤ 1 nM	CCNC(=O)c1ccc(Nc2nc3ccc(-c4cccc(C(=O)NCC(F)(F)F)c4)cn3n2)c(OCC)c1 [Example 11.088, 3-ethoxy-N-ethyl-4-[(6-{3-[(2,2,2-trifluoroethyl)carbamoyl]phenyl}[1,2,4]triazolo [1,5-a]pyridin-2-yl)amino]benzamide]
1.01 nM	CCOc1cc(C(=O)NC(C)(C)C)ccc1Nc1nc2ccc(-c3cccc(C(=O)NCC(C)(C)C)c3)cn2n1 [Example 11.089, N-tert-butyl-4-[(6-{3-[(2,2-dimethylpropyl)carbamoyl]phenyl}[1,2,4]tria-zolo[1,5-a]pyridin-2-yl)amino]-3-ethoxybenzamide]
1.62 nM	CCOc1cc(C(=O)NC(C)(C)C)ccc1Nc1nc2ccc(-c3cccc(C(=O)NCC(F)(F)F)c3)cn2n1 [Example 11.090, N-tert-butyl-3-ethoxy-4-[(6-{3-[(2,2,2-trifluoroethyl)carbamoyl]phenyl}[1,2,4]triazolo [1,5-a]pyridin-2-yl)amino]benzamide]
≤ 1 nM	CC(C)(C)CNC(=O)c1cccc(-c2ccc3nc(Nc4ccc(C(=O)NCCO)cc4OCC(F)(F)F)nn3c2)c1 [Example 11.091, 4-[(6-{3-[(2,2-dimethylpropyl)carbamoyl]phenyl}[1,2,4]tria-zolo[1,5-a]pyridin-2-yl)amino]-N-(2-hydroxyethyl)-3-(2,2,2-trifluoroethoxy)benzamide]
≤ 1 nM	O=C(NCCO)c1ccc(Nc2nc3ccc(-c4cccc(C(=O)NCC(F)(F)F)c4)cn3n2)c(OCC(F)(F)F)c1 [Example 11.093, N-(2-hydroxyethyl)-3-(2,2,2-trifluoroethoxy)-4-[(6-{3-[(2,2,2-trifluoroethyl)carbamoyl]phenyl}[1,2,4]triazolo [1,5-a]pyridin-2-yl)amino]benzamide]
≤ 1 nM	CC(C)(CO)NC(=O)c1ccc(Nc2nc3ccc(-c4cccc(C(=O)NCC(F)(F)F)c4)cn3n2)c(OCC(F)(F)F)c1 [Example 11.094, N-(1-hydroxy-2-methylpropan-2-yl)-3-(2,2,2-trifluoroethoxy)-4-[(6-{3-[(2,2,2-trifluoroethyl)carbamoyl]phenyl}[1,2,4]triazolo [1,5-a]pyridin-2-yl)amino]benzamide]
